Positions of bridges follow the written chain, without caps; N, C: chain ends. Non-standard residues stand in square brackets, D forms with d. Residues, ends and D or L forms follow the SMILES beside them. 2Pal = N[C@@H](Cc1ccccn1)C(=O)O
Columns and labels:
[1] = biological target: hNav1.7 (Homo sapiens, UniProt Q15858); assay: cell-based; details: Nav1.7 Use IC50
[2] = biological target: hNav1.5 (Homo sapiens, UniProt Q14524); assay: cell-based
Chain of hNav1.5 (Q14524 whole entry, looked up): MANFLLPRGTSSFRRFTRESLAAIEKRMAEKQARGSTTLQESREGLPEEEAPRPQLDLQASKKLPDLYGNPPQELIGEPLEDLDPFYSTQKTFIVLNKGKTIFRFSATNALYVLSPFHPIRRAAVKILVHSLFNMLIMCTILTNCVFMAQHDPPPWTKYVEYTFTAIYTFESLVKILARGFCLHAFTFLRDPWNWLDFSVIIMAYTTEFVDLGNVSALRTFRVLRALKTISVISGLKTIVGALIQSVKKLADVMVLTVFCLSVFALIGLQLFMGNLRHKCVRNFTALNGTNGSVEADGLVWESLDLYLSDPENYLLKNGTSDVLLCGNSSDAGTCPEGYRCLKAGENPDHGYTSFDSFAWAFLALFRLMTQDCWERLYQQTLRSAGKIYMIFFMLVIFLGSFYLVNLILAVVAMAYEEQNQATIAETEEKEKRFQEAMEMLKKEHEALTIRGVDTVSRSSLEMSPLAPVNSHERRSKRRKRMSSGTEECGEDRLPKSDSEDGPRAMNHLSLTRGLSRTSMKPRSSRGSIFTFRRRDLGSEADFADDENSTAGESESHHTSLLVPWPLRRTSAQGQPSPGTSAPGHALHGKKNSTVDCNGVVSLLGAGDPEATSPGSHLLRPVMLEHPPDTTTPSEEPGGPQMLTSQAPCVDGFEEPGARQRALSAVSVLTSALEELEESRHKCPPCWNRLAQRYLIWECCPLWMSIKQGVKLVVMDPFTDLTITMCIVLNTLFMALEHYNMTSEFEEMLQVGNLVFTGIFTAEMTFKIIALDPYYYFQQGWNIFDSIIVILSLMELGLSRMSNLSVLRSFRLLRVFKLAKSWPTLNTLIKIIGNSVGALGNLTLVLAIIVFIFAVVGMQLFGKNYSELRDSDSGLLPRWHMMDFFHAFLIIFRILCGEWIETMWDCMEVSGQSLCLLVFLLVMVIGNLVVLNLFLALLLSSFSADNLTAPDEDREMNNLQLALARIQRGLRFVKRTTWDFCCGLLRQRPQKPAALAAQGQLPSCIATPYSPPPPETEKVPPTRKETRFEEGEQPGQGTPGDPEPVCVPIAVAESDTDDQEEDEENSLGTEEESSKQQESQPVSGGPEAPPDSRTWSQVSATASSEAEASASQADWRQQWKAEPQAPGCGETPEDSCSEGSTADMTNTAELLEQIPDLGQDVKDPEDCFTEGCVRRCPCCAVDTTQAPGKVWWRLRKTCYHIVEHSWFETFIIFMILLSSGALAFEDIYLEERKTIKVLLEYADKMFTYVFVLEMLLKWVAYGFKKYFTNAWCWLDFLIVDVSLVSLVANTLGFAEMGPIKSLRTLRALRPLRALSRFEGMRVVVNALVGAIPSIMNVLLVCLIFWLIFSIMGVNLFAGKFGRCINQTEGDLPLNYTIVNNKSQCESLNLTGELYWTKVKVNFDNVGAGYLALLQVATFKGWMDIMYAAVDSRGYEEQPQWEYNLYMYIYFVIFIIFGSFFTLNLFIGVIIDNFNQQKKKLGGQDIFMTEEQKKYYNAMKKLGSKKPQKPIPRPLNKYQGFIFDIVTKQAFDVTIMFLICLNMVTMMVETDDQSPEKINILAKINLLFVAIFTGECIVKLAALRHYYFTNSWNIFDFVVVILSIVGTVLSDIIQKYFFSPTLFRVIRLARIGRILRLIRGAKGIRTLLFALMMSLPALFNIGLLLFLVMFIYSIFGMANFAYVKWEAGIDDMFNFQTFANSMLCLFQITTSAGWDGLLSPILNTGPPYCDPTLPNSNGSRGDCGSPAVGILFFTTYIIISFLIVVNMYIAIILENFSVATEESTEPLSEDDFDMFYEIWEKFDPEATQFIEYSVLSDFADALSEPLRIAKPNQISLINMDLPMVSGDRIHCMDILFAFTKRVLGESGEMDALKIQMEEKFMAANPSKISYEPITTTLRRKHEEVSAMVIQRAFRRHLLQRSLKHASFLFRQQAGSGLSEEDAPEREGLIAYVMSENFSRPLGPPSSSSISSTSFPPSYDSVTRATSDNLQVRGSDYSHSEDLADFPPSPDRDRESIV

Chain of hNav1.7 (Q15858 whole entry, looked up): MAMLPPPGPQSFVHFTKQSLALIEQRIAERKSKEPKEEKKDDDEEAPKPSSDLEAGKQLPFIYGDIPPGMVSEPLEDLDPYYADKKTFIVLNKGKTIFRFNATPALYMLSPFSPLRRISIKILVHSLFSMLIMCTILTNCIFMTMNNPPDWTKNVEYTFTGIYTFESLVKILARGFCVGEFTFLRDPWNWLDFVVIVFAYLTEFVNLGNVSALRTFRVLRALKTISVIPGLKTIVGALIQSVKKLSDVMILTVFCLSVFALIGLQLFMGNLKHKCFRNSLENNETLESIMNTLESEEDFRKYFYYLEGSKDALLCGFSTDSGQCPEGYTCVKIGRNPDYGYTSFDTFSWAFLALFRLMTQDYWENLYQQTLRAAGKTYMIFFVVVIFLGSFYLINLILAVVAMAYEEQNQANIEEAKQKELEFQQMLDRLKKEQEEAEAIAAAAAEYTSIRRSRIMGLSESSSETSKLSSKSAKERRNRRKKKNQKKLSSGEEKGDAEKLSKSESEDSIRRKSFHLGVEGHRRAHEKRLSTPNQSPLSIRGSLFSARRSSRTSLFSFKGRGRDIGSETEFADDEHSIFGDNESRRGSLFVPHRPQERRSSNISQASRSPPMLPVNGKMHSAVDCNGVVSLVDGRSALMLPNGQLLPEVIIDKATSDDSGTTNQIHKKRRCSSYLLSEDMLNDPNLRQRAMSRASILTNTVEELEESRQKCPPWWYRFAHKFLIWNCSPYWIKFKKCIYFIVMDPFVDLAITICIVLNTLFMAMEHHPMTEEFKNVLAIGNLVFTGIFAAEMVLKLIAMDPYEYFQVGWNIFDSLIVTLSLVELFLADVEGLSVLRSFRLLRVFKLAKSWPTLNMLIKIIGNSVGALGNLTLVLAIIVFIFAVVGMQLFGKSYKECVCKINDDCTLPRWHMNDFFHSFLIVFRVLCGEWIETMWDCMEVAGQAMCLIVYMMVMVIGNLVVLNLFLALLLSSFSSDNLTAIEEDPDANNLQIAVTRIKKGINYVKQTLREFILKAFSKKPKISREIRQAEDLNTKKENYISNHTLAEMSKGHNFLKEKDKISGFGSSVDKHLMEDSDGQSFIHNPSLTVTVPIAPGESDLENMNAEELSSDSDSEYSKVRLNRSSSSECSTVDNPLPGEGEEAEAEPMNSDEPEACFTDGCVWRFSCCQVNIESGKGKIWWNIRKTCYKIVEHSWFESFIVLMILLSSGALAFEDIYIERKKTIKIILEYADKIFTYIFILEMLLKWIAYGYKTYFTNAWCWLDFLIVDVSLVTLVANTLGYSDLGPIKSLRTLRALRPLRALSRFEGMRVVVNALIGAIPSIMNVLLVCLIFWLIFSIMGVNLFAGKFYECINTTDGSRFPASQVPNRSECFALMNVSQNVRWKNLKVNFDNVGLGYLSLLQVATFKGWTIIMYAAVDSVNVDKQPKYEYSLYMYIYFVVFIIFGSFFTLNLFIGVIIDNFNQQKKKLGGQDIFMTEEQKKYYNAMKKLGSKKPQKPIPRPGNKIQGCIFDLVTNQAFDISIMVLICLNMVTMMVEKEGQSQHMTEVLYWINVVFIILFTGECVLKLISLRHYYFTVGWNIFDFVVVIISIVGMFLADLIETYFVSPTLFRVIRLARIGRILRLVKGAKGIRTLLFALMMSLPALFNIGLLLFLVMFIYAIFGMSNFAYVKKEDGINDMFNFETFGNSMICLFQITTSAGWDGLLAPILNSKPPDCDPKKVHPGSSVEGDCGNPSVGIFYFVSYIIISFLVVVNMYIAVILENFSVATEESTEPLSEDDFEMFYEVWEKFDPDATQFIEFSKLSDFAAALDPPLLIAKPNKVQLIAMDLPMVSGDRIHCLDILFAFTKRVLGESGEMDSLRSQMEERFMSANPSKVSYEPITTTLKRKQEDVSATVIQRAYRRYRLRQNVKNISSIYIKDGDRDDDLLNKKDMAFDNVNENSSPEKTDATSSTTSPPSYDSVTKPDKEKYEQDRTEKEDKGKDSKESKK

Row | Compound | IC50 [1] [nM] | IC50 [2] [µM]
1 | CC[C@H](C)[C@@H]1NC(=O)[C@@H]2CSSC[C@@H]3NC(=O)[C@H](C(C)C)NC(=O)[C@H](CC(C)C)NC(=O)[C@H](CC(N)=O)NC(=O)[C@@H]4CCCN4C(=O)[C@H](CCCNC(=N)N)NC(=O)[C@H](CSSC[C@H](NC(=O)[C@@H](N)CC(=O)O)C(=O)N[C@@H](CC(C)C)C(=O)NCC(=O)N[C@@H](CO)C(=O)N[C@@H](Cc4ccccc4)C(=O)N[C@@H](CCCNC(=N)N)C(=O)N[C@@H](CCCCN)C(=O)N2)NC(=O)[C@H](CSSC[C@@H](C(=O)N[C@@H](CCCCN)C(=O)N[C@@H](Cc2ccc(O)cc2)C(=O)N[C@H](C(=O)N[C@@H](Cc2ccccc2)C(N)=O)C(C)C)NC(=O)[C@H](Cc2c[nH]c4ccccc24)NC(=O)[C@H](CCCCN)NC(=O)[C@H](Cc2c[nH]cn2)NC(=O)[C@H]([C@@H](C)O)NC(=O)[C@H](CCCNC(=N)N)NC(=O)[C@H](CO)NC3=O)NC(=O)[C@H](CCCCN)NC(=O)[C@H](CC(=O)O)NC(=O)[C@H](CC(N)=O)NC(=O)[C@H](CC(=O)O)NC(=O)[C@@H]2CCCN2C1=O [[Ser5;Phe6]GpTx-1(1-34)] (H-DCLGSFRKCIPDNDKCCRPNLVCSRTHKWCKYVF-NH2; disulfide 2-17, 9-23, 16-30) | 24 | > 10
2 | CC[C@H](C)[C@@H]1NC(=O)[C@@H]2CSSC[C@@H]3NC(=O)[C@H](C(C)C)NC(=O)[C@H](CC(C)C)NC(=O)[C@H](CC(N)=O)NC(=O)[C@@H]4CCCN4C(=O)[C@H](CCCNC(N)=O)NC(=O)[C@H](CSSC[C@H](NC(=O)[C@@H](N)CC(=O)O)C(=O)N[C@@H](CC(C)C)C(=O)NCC(=O)N[C@@H](Cc4ccccc4)C(=O)N[C@@H](CCSC)C(=O)N[C@@H](CCCNC(=N)N)C(=O)N[C@@H](CCCCN)C(=O)N2)NC(=O)[C@H](CSSC[C@@H](C(=O)N[C@@H](CCCCN)C(=O)N[C@@H](Cc2ccc(O)cc2)C(=O)N[C@H](C(=O)N[C@@H](Cc2ccccc2)C(N)=O)C(C)C)NC(=O)[C@H](Cc2c[nH]c4ccccc24)NC(=O)[C@H](CCCCN)NC(=O)[C@H](Cc2cnc[nH]2)NC(=O)[C@H]([C@@H](C)O)NC(=O)[C@H](CCCNC(=N)N)NC(=O)[C@H](CO)NC3=O)NC(=O)[C@H](CCCCN)NC(=O)[C@H](CC(=O)O)NC(=O)[C@H](CC(N)=O)NC(=O)[C@H](CC(=O)O)NC(=O)[C@@H]2CCCN2C1=O [[Cit18]GpTx-1(1-34)] | 2 | 10
3 | CC[C@H](C)[C@@H]1NC(=O)[C@@H]2CSSC[C@@H]3NC(=O)[C@H](C(C)C)NC(=O)[C@H](CC(C)C)NC(=O)[C@H](CC(N)=O)NC(=O)[C@@H]4CCCN4C(=O)[C@H](CCCNC(=N)N)NC(=O)[C@H](CSSC[C@H](NC(=O)[C@@H](N)CC(=O)O)C(=O)N[C@@H](CC(C)C)C(=O)NCC(=O)N[C@@H](Cc4ccccc4)C(=O)N[C@@H](CCSC)C(=O)N[C@@H](CCCNC(=N)N)C(=O)N[C@@H](CCCCN)C(=O)N2)NC(=O)[C@H](CSSC[C@@H](C(=O)N[C@@H](CCCCN)C(=O)N[C@@H](Cc2ccccn2)C(=O)N[C@H](C(=O)N[C@@H](Cc2ccccc2)C(N)=O)C(C)C)NC(=O)[C@H](Cc2c[nH]c4ccccc24)NC(=O)[C@H](CCCCN)NC(=O)[C@H](Cc2c[nH]cn2)NC(=O)[C@H]([C@@H](C)O)NC(=O)[C@H](CCCNC(=N)N)NC(=O)[C@H](CO)NC3=O)NC(=O)[C@H](CCCCN)NC(=O)[C@H](CC(=O)O)NC(=O)[C@H](CC(N)=O)NC(=O)[C@H](CC(=O)O)NC(=O)[C@@H]2CCCN2C1=O [[2PAL32]GpTx-1(1-34)] (H-DCLGFMRKCIPDNDKCCRPNLVCSRTHKWCK[2Pal]VF-NH2; disulfide 2-17, 9-23, 16-30) | 35 | > 10
4 | CC[C@H](C)[C@@H]1NC(=O)[C@@H]2CSSC[C@@H]3NC(=O)[C@H](C(C)C)NC(=O)[C@H](CC(C)C)NC(=O)[C@H](CC(N)=O)NC(=O)[C@@H]4CCCN4C(=O)[C@H](CCCNC(=N)N)NC(=O)[C@H](CSSC[C@H](NC(=O)[C@@H](N)CC(=O)O)C(=O)N[C@@H](CC(C)C)C(=O)NCC(=O)N(C)[C@@H](Cc4ccccc4)C(=O)N[C@@H](CC(C)C)C(=O)N[C@@H](CCCNC(=N)N)C(=O)N[C@@H](CCCCN)C(=O)N2)NC(=O)[C@H](CSSC[C@@H](C(=O)N[C@@H](CCCCN)C(=O)N[C@@H](Cc2ccc(O)cc2)C(=O)N[C@H](C(=O)N[C@@H](Cc2ccccc2)C(N)=O)C(C)C)NC(=O)[C@H](Cc2c[nH]c4ccccc24)NC(=O)[C@H](CCCCN)NC(=O)[C@H](Cc2c[nH]cn2)NC(=O)[C@H]([C@@H](C)O)NC(=O)[C@H](CCCNC(=N)N)NC(=O)[C@H](CO)NC3=O)NC(=O)[C@H](CCCCN)NC(=O)[C@H](CC(=O)O)NC(=O)[C@H](CC(N)=O)NC(=O)[C@H](CC(=O)O)NC(=O)[C@@H]2CCCN2C1=O [[NMePhe5;Leu6]GpTx-1(1-34)] | 12 | 11.3
5 | CC[C@H](C)[C@@H]1NC(=O)[C@@H]2CSSC[C@@H]3NC(=O)[C@H](C(C)C)NC(=O)[C@H](CC(C)C)NC(=O)[C@H](CC(N)=O)NC(=O)[C@@H]4CCCN4C(=O)[C@H](CCCNC(=N)N)NC(=O)[C@H](CSSC[C@H](NC(=O)[C@@H](N)CC(=O)O)C(=O)N[C@@H](CC(C)C)C(=O)N[C@@H](CCCNC(=N)N)C(=O)N[C@@H](CCSC)C(=O)N[C@@H](CCSC)C(=O)N[C@@H](CCCNC(=N)N)C(=O)N[C@@H](CCCCN)C(=O)N2)NC(=O)[C@H](CSSC[C@@H](C(=O)N[C@@H](CCCCN)C(=O)N[C@@H](Cc2ccc(O)cc2)C(=O)N[C@H](C(=O)N[C@@H](Cc2ccccc2)C(N)=O)C(C)C)NC(=O)[C@H](Cc2c[nH]c4ccccc24)NC(=O)[C@H](CCCCN)NC(=O)[C@H](Cc2c[nH]cn2)NC(=O)[C@H]([C@@H](C)O)NC(=O)[C@H](CCCNC(=N)N)NC(=O)[C@H](CO)NC3=O)NC(=O)[C@H](CCCCN)NC(=O)[C@H](CC(=O)O)NC(=O)[C@H](CC(N)=O)NC(=O)[C@H](CC(=O)O)NC(=O)[C@@H]2CCCN2C1=O [[Arg4;Met5]GpTx-1(1-34)] (H-DCLRMMRKCIPDNDKCCRPNLVCSRTHKWCKYVF-NH2; disulfide 2-17, 9-23, 16-30) | 29 | 13.2
6 | CC[C@H](C)[C@@H]1NC(=O)[C@@H]2CSSC[C@@H]3NC(=O)[C@H](C(C)C)NC(=O)[C@H](CC(C)C)NC(=O)[C@H](CC(N)=O)NC(=O)[C@@H]4CCCN4C(=O)[C@H](CCCNC(=N)N)NC(=O)[C@H](CSSC[C@H](NC(=O)[C@@H](N)CC(=O)O)C(=O)N[C@@H](CC(C)C)C(=O)NCC(=O)N[C@@H](C)C(=O)N[C@@H](Cc4ccccc4)C(=O)N[C@@H](CCCNC(=N)N)C(=O)N[C@@H](CCCCN)C(=O)N2)NC(=O)[C@H](CSSC[C@@H](C(=O)N[C@@H](CCCCN)C(=O)N[C@@H](Cc2ccc(O)cc2)C(=O)N[C@H](C(=O)N[C@@H](Cc2ccccc2)C(=O)N[C@@H](Cc2ccccc2)C(=O)O)C(C)C)NC(=O)[C@H](Cc2c[nH]c4ccccc24)NC(=O)[C@H](CCCNC(=N)N)NC(=O)[C@H](Cc2c[nH]cn2)NC(=O)[C@H]([C@@H](C)O)NC(=O)[C@H](CCCNC(=N)N)NC(=O)[C@H](CO)NC3=O)NC(=O)[C@H](CCCCN)NC(=O)[C@H](CC(=O)O)NC(=O)[C@H](CC(N)=O)NC(=O)[C@H](CC(=O)O)NC(=O)[C@@H]2CCCN2C1=O [Ala5;Phe6;Arg28]GpTx-1(1-34)-Phe-] (H-DCLGAFRKCIPDNDKCCRPNLVCSRTHRWCKYVFF-OH; disulfide 2-17, 9-23, 16-30) | 116 | > 10
7 | CC[C@H](C)[C@@H]1NC(=O)[C@@H]2CSSC[C@@H]3NC(=O)[C@H](C(C)C)NC(=O)[C@H](CC(C)C)NC(=O)[C@H](CC(N)=O)NC(=O)[C@@H]4CCCN4C(=O)[C@H](CCCNC(=N)N)NC(=O)[C@H](CSSC[C@H](NC(=O)[C@@H](N)CC(=O)O)C(=O)N[C@@H](CC(C)C)C(=O)NCC(=O)N[C@@H](C(C)C)C(=O)N[C@@H](CCSC)C(=O)N[C@@H](CCCNC(=N)N)C(=O)N[C@@H](CCCCN)C(=O)N2)NC(=O)[C@H](CSSC[C@@H](C(=O)N[C@@H](CCCCN)C(=O)N[C@@H](Cc2ccc(O)cc2)C(=O)N[C@H](C(=O)N[C@@H](Cc2ccccc2)C(N)=O)C(C)C)NC(=O)[C@H](Cc2c[nH]c4ccccc24)NC(=O)[C@H](CCCCN)NC(=O)[C@H](Cc2c[nH]cn2)NC(=O)[C@H]([C@@H](C)O)NC(=O)[C@H](CCCNC(=N)N)NC(=O)[C@H](CO)NC3=O)NC(=O)[C@H](CCCCN)NC(=O)[C@H](CC(=O)O)NC(=O)[C@H](CC(N)=O)NC(=O)[C@H](CCC(=O)O)NC(=O)[C@@H]2CCCN2C1=O [[Val5;Glu12]GpTx-1(1-34)] (H-DCLGVMRKCIPENDKCCRPNLVCSRTHKWCKYVF-NH2; disulfide 2-17, 9-23, 16-30) | 74 | > 10
8 | CC[C@H](C)[C@@H]1NC(=O)[C@@H]2CSSC[C@@H]3NC(=O)[C@H](C(C)C)NC(=O)[C@H](CC(C)C)NC(=O)[C@H](CC(N)=O)NC(=O)[C@@H]4CCCN4C(=O)[C@H](CCCNC(=N)N)NC(=O)[C@H](CSSC[C@H](NC(=O)[C@@H](N)CC(=O)O)C(=O)N[C@@H](CC(C)C)C(=O)NCC(=O)N[C@@H](C)C(=O)N[C@@H](CC(C)C)C(=O)N[C@@H](CCCNC(=N)N)C(=O)N[C@@H](CCCCN)C(=O)N2)NC(=O)[C@H](CSSC[C@@H](C(=O)N[C@@H](CCCCN)C(=O)N[C@@H](Cc2ccc(O)cc2)C(=O)N[C@H](C(=O)N[C@@H](Cc2ccccc2)C(=O)N[C@@H](Cc2c[nH]c4ccccc24)C(=O)O)C(C)C)NC(=O)[C@H](Cc2c[nH]c4ccccc24)NC(=O)[C@H](CCCNC(=N)N)NC(=O)[C@H](Cc2c[nH]cn2)NC(=O)[C@H]([C@@H](C)O)NC(=O)[C@H](CCCNC(=N)N)NC(=O)[C@H](CO)NC3=O)NC(=O)[C@H](CCCCN)NC(=O)[C@H](CC(=O)O)NC(=O)[C@H](CC(N)=O)NC(=O)[C@H](CC(=O)O)NC(=O)[C@@H]2CCCN2C1=O (H-DCLGALRKCIPDNDKCCRPNLVCSRTHRWCKYVFW-OH; disulfide 2-17, 9-23, 16-30) | 50 | > 10

— patent US9340590B2 (priority 2011, dated 2016)
